Experimental findings from US11590116B2 (THERAVANCE BIOPHARMA R&D IP, LLC, priority 2019, dated 2023) are described below.

Assay [1] relates to TGF-β-stimulated SMAD3 phosphorylation in BEAS-2B cells. The experiment in a line: Cellular ALK5 potency assay, inhibition of TGF-β stimulated pSMAD3 formation in BEAS-2B cells. Type of assay: cell-based. The following applies: Homo sapiens, read-out: BEAS2B pIC50 (converted). The procedure, abridged:
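Cells seeded overnight; rinse with supplemented HBSS; compound 1 h at 37 °C; TGF-β 10 ng/mL final, 30 min; lyse; AlphaLISA acceptor and detector beads 2 h apart, read next day. Potency expressed as pIC50.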

The target of assay [2] is T1, recombinant human ALK5 (TGF-βR1) protein (Homo sapiens, UniProt P36897).
T1 construct: purchased Life Technologies PR9075A
T1 sequence (P36897 34-503): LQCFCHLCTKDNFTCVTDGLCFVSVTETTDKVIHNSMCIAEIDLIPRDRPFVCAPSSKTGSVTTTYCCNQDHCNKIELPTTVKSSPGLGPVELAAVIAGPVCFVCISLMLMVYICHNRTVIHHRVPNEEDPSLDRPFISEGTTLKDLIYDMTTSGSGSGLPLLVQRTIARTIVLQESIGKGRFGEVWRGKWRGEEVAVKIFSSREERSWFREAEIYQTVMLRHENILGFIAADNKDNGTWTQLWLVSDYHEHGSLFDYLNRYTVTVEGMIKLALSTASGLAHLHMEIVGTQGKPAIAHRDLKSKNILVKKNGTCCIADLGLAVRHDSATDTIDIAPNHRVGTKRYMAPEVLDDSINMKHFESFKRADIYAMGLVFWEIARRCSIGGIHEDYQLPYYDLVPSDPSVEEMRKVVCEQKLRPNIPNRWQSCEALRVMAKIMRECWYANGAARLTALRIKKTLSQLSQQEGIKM
The experiment in a line: Biochemical ALK5 (TGF-βR1) assay to measure pKi (LANCE Ultra ULight kinase assay). The following applies: apparent pKi from pIC50 by Cheng-Prusoff, read-out: ALK5 pKi (converted). The procedure, abridged:
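After a 60 min room-temperature preincubation of ALK5 with compound, phosphorylation proceeds 60 min at 37 °C on ATP addition (125 μM as 5× stock). Detection: Eu-labelled phospho-Thr1342 Topo IIα antibody in EDTA buffer, pH 7.0; emission 665 nm.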
Background: TR-FRET usually uses a lanthanide donor and a delayed reading to cut background.

Where [3] appears, read: inhibition of TGF-β stimulated pSMAD3 formation, BEAS-2B cells.

SMILES strings stand for the structures. Where two headings read alike, the source gives them in different places.

For the compound `Cc1nc(-c2n[nH]cc2-c2ccc3ncc(-c4cnn5c4NCCC5)cc3n2)ccc1F` [Compound 1, 2-[3-(5-fluoro-6-methyl-2-pyridyl)-1H-pyrazol-4-yl]-7-(4,5,6,7-tetrahydropyrazolo[1,5-a]pyrimidin-3-yl)-1,5-naphthyridine], the IC50 in assay [1] (setting [3]) was 25.1 to 158 nM. The Ki in assay [2] is under 0.0316 nM.
The matching figures for `Cc1cccc(-c2nc3sccn3c2-c2ccc3ncc(Br)cc3n2)n1` [Compound 511, 5-(7-Bromo-1,5-naphthyridin-2-yl)-6-(6-methylpyridin-2-yl)imidazo[2,1-b]thiazole]: 25.1 to 158 nM and 0.398 to 3.16 nM.
The corresponding values for `CNCc1ccnc2ccc(-c3c[nH]nc3-c3cccc(C)n3)nc12` [Compound 829, N-methyl-1-[6-[3-(6-methyl-2-pyridyl)-1H-pyrazol-4-yl]-1,5-naphthyridin-4-yl]methanamine] are 25.1 to 158 nM and 0.398 to 3.16 nM.
On to `Cc1cccc(-c2[nH]cnc2-c2ccc3ncc(-c4nc(C(=O)OCCN5CCC[C@H](N)C5)cs4)cc3c2)n1` [Compound 1172, 2-[(3S)-3-amino-1-piperidyl]ethyl 2-[6-[5-(6-methyl-2-pyridyl)-1H-imidazol-4-yl]-3-quinolyl]thiazole-4-carboxylate], for which the IC50 in assay [1] (setting [3]) was 200 to 1260 nM. Moreover, the Ki in assay [2] was under 0.0316 nM.
The corresponding values for `Cc1cccc(-c2[nH]cnc2-c2ccc3ncc(C(=O)OCCN4CCC5(CCNCC5)C4)cc3c2)n1` [Compound 896, 2-(2,8-diazaspiro[4.5]decan-2-yl)ethyl 6-(5-(6-methylpyridin-2-yl)-1H-imidazol-4-yl)quinoline-3-carboxylate] are 200 to 1260 nM and 0.0398 to 0.316 nM.
The matching figures for `Cc1nc(-c2n[nH]cc2-c2ccc3ncc(N4CCN(CCO)CC4)cc3n2)ccc1F` [Compound 509, 2-[4-[6-[3-(5-fluoro-6-methyl-2-pyridyl)-1H-pyrazol-4-yl]-1,5-naphthyridin-3-yl]piperazin-1-yl]ethanol]: 25.1 to 158 nM and under 0.0316 nM.
The corresponding values for `Cc1cccc(-c2n[nH]cc2-c2ccc3ncc(N(C)CCN4CCOCC4)cc3n2)n1` [Compound 103, N-methyl-6-[3-(6-methyl-2-pyridyl)-1H-pyrazol-4-yl]-N-(2-morpholinoethyl)-1,5-naphthyridin-3-amine] are 25.1 to 158 nM and 0.0398 to 0.316 nM.
Turning to `Cc1cccc(-c2n[nH]cc2-c2ccc3ncc(NCC4CNC4)cc3n2)n1` [Compound 431, N-(azetidin-3-ylmethyl)-6-[3-(6-methyl-2-pyridyl)-1H-pyrazol-4-yl]-1,5-naphthyridin-3-amine], in assay [1] (setting [3]), the IC50 was 1580 to 10000 nM. Also, in assay [2], the Ki is 0.0398 to 0.316 nM.
The matching figures for `Cc1cccc(-c2c(-c3ccc4ncc(N5CCC(N6CCN(C)CC6)CC5)cc4c3)nnn2Cc2ccccc2)n1` [Compound 578, 6-[1-benzyl-5-(6-methyl-2-pyridyl)triazol-4-yl]-3-[4-(4-methylpiperazin-1-yl)-1-piperidyl]quinoline]: 1580 to 10000 nM and 3.98 to 31.6 nM.
The matching figures for `Cc1cccc(-c2[nH]cnc2-c2ccc3ncc(Nc4cnn(CCC5CCNCC5)c4)cc3c2)n1` [Compound 667, 6-[5-(6-methyl-2-pyridyl)-1H-imidazol-4-yl]-N-[1-[2-(4-piperidyl)ethyl]pyrazol-4-yl]quinolin-3-amine]: 200 to 1260 nM and 0.0398 to 0.316 nM.
`Cc1cccc(-c2n[nH]cc2-c2ccc3ncc(N(C)C4CCN(C)C4)cc3n2)n1` (racemic) [Compound 140, N-methyl-6-[3-(6-methyl-2-pyridyl)-1H-pyrazol-4-yl]-N-[rac-(3R)-1-methylpyrrolidin-3-yl]-1,5-naphthyridin-3-amine]: in assay [1] (setting [3]), the IC50 was 25.1 to 158 nM. Also, the Ki in assay [2] is under 0.0316 nM.
The corresponding values for `Cc1cccc(-c2[nH]cnc2-c2ccc3ncc(-c4cccc(C(=O)OCCN5CCNCC5)n4)cc3c2)n1` [Compound 1151, 2-piperazin-1-ylethyl 6-[6-[5-(6-methyl-2-pyridyl)-1H-imidazol-4-yl]-3-quinolyl]pyridine-2-carboxylate] are 200 to 1260 nM and 0.0398 to 0.316 nM.
The matching figures for `Cc1cccc(-c2n[nH]cc2-c2ccc3ncc(N(C)CC4CNC4)cc3n2)n1` [Compound 357, N-(azetidin-3-ylmethyl)-N-methyl-6-[3-(6-methyl-2-pyridyl)-1H-pyrazol-4-yl]-1,5-naphthyridin-3-amine]: 25.1 to 158 nM and under 0.0316 nM.
The corresponding values for `Cc1cccc(-c2[nH]cnc2-c2ccc3ncc(C(=O)O[C@H]4CC[C@](C)(N)CC4)cc3c2)n1` [Compound 771, (4-amino-4-methyl-cyclohexyl) 6-[5-(6-methyl-2-pyridyl)-1H-imidazol-4-yl]quinoline-3-carboxylate] are 25.1 to 158 nM and 0.0398 to 0.316 nM.
In the case of `Cc1nc(-c2n[nH]cc2-c2ccc3ncc(N4CCC(N5CCN(C)CC5)CC4)cc3c2)ccc1F` [Compound 93, 6-[3-(5-fluoro-6-methyl-2-pyridyl)-1H-pyrazol-4-yl]-3-[4-(4-methylpiperazin-1-yl)-1-piperidyl]quinoline], the IC50 in assay [1] (setting [3]) is 25.1 to 158 nM. For the same compound, the Ki in assay [2] was under 0.0316 nM.
The matching figures for `Cc1cccc(-c2n[nH]cc2-c2ccc3ncc(-c4cn(Cc5ccccc5)nn4)cc3n2)n1` [Compound 48, 7-(l-benzyltriazol-4-yl)-2-[3-(6-methyl-2-pyridyl)-1H-pyrazol-4-yl]-1,5-naphthyridine]: under 20 nM and 0.0398 to 0.316 nM.
With `Cc1cccc(-c2n[nH]cc2-c2ccc3ncc(C(N)=O)cc3n2)n1` [Compound 607, 6-[3-(6-methyl-2-pyridyl)-1H-pyrazol-4-yl]-1,5-naphthyridine-3-carboxamide], the IC50 in assay [1] (setting [3]) was 25.1 to 158 nM. Also, in assay [2], the Ki was 0.0398 to 0.316 nM.
As for `Cc1nc(-c2n[nH]cc2-c2ccc3ncc(-c4ncc5n4CCNC5)cc3n2)ccc1F` [Compound 39, 2-[3-(5-fluoro-6-methyl-2-pyridyl)-1H-pyrazol-4-yl]-7-(5,6,7,8-tetrahydroimidazo[1,5-a]pyrazin-3-yl)-1,5-naphthyridine], the IC50 in assay [1] (setting [3]) was 200 to 1260 nM. Moreover, the Ki in assay [2] is 0.398 to 3.16 nM.
With `Cc1cccc(-c2[nH]cnc2-c2ccc3ncc(Nc4nc5n(n4)CCNC5)cc3c2)n1` [Compound 338, 6-(5-(6-methylpyridin-2-yl)-1H-imidazol-4-yl)-N-(5,6,7,8-tetrahydro-[1,2,4]triazolo[1,5-a]pyrazin-2-yl)quinolin-3-amine], in assay [1] (BEAS-2B), the IC50 was 200 to 1260 nM. The Ki in assay [2] is 0.0398 to 0.316 nM.
As to `Cc1cccc(-c2n[nH]cc2-c2ccc3ncc(C4CCNCC4)cc3n2)n1` [Compound 470, 2-[3-(6-methyl-2-pyridyl)-1H-pyrazol-4-yl]-7-(4-piperidyl)-1,5-naphthyridine], in assay [1] (setting [3]), the IC50 is 25.1 to 158 nM. In assay [2], the Ki was 0.398 to 3.16 nM.
The corresponding values for `Cc1cccc(-c2n[nH]cc2-c2ccc3ncc(N4CCC(N)CC4)cc3n2)n1` [Compound 316, 1-[6-[3-(6-methyl-2-pyridyl)-1H-pyrazol-4-yl]-1,5-naphthyridin-3-yl]piperidin-4-amine] are 25.1 to 158 nM and under 0.0316 nM.
The corresponding values for `Cc1cccc(-c2n[nH]cc2-c2ccc3ncc(C4=CCC(NC(C)C)CC4)cc3n2)n1` (centres unmarked) [Compound 417, N-isopropyl-4-[6-[3-(6-methyl-2-pyridyl)-1H-pyrazol-4-yl]-1,5-naphthyridin-3-yl]cyclohex-3-en-1-amine] are 25.1 to 158 nM and under 0.0316 nM.
